A short description of assay [1]: Solution mineralization approach on tetracycline-stained human teeth; line profile analysis (Mean Pixel Intensity). As to conditions: for Mean Pixel Intensity: shADP5 0.8 mM, tetracycline-stained. The source says: Human teeth, donated by the University of Washington School of Dentistry (Seattle, Wash., USA), were selected for their clean, smooth surfaces. The teeth were sterilized in bleach, cut on a diamond blade to remove the root, and halved. A thin layer of the enamel surface was then cut on one of the halves parallel to the previous cut, such that the dentin layer could be seen without completely removing the enamel on the tooth. This allowed imaging of the enamel surfaces after the mineralization experiment without the problem of surface reflection encountered in previous experiments, in addition to a more parallel surface from which to compare the brightness or whiteness results. The cut enamel side of the tooth sample was then sonicated in DI water and polished on diamond slurry smooth out the surface for imaging. The sample was then cut into quarters, with the lower half selected for a tetracycline experiment because of the even distribution of dentin coloring in the lower quarters of the tooth sample. The samples were then stained in 10 mg/mL tetracycline solution for five days.
During mineralization, using a 96-well plate, one of the stained halves was stored in 1200 μL Tris (24 mM) as a negative control, and the experimental sample was incubated in 150 μL shADP5 (0.8 mM) at 37° C. for 10 minutes. The experimental sample was then rinsed of excess peptide with deionized water and then stored in 600 μL CaCl2 (9.6 mM), to which 600 μL monobasic KH2PO4 (5.76 mM) was added. The well plate containing both the control and experimental samples was then stored at 37° C. for about 24 hours for mineralization to occur on the treated stained tooth sample.
[…] After 27 rounds of mineralization on the experimental sample, the tooth was inspected for changes in brightness qualitatively. The stained negative control was polished to expose the original enamel stain in order to compare the whitening effect of the peptide mineralization.

Assay [2] can be described thus: In vitro re-mineralization of tea-stained rat tooth with peptide solution. As to conditions: peptide 10 min 37° C., then CaCl2/KH2PO4 16 hours 37° C., control in Tris buffer. How it is done: Rat teeth (molars) were obtained from sacrificed rats (for example, Sprague Dawley rats, age 3 weeks or older) from animal facility, collected, and stored in 100% alcohol. Prior to the re-mineralization experiments the teeth were stored in 1% bleach for 24 hours. […] The teeth were then dried in an incubator in air at 37° C. for 3-6 hours to produce dry surface. The root site and section the crown were removed vertically using a diamond blade. Pictures were taken with camera attached to optical microscope. Exposed dentine sites in the one half of the sectioned tooth were etched with 35% phosphoric acid (Ultraetch™) for 60 seconds (to facilitate the stain intake). The etching gel was removed by rinsing the sample with distilled water for 3 minutes. The staining solution was prepared by boiling 2 g of tea in 100 ml of deionized water for 5 minutes, and then cooled down to room temperature and filtered. The tooth sample was soaked in the staining solution and incubated at 37° C. at 150 rpm for 24 hours. The tooth was removed from the staining solution and sonicated for 30 seconds in deionized water (sonic bath) to remove the excess amount of tea particles attached to tooth extrinsically. The one half of the sectioned tooth was cut vertically into half again to form two quarter sections of the tooth. A second set of pictures were taken with camera attached to optical microscope. […]

The nature of assay [3]: In vitro re-mineralization of tea-stained human tooth with peptide solution; line profile analysis (Mean Pixel Intensity, ImageJ). How it is done:
A caries-free human tooth was sterilized in 1% bleach solution for 24 hours then removed and vigorously rinsed with deionized water. The root site was removed and the crown sectioned vertically using a diamond blade. Pictures were taken with a camera attached to an optical microscope.
The exposed dentine sites were etched with 35% phosphoric acid (Ultraetch™) for 60 seconds (to facilitate the stain intake). The etching gel was removed by rinsing the sample with distilled water for 3 minutes. The staining solution was prepared by boiling 2 g of tea in 100 ml of deionized water for 5 minutes, which was then cooled down to room temperature and filtered. The tooth was soaked in the staining solution and incubated at 37° C. at 150 rpm for 24 hours. The tooth was then removed from the staining solution and sonicated for 30 seconds in deionized water (sonic bath) to remove the excess amount of tea particles attached to tooth extrinsically. The sectioned tooth was cut vertically in half again to form two quarter sections of the tooth. FIGS. 2(a) to 2(g) show various sections of the tooth after the staining. […] Figures (b), (c) and (d) show different views of the left quarter of the tooth that was sectioned from the tooth. Figures (e), (f) and (g) show different views of the right quarter of the tooth that was sectioned from the tooth. As can be observed from FIGS. 2(a) to 2(g), brown stains from the staining solution were formed on the surface and below the surface of the tooth. The left quarter of the tooth was stored in 24 mM Tris Buffer (pH: 7.4) for control and the right quarter of the tooth (test tooth) was used for in vitro re-mineralization. The test tooth was submerged into peptide solution (600 μl) containing a mineralization polypeptide in a 48 well plate and incubated for 10 minutes at 37° C. After incubation, the tooth was removed and placed into to a new well. A mineralization solution of 400 μl of 9.6 mM CaCl2 and 400 μl of 5.6 mM KH2PO4 was added and quickly mixed by pipetting the solution up and down. […]

Assay [4] in a line: Solution mineralization approach, 25 rounds, colour measured with Minolta Chroma Meter CR-200. The settings on record: unstained sectioned human tooth, peptide 10 minutes, calcium/phosphate ions 2 hours 37° C. The text has this: The root site of an extracted human tooth was removed and the crown portion of the tooth was sectioned vertically into half. A thin layer of enamel was removed from one half of the sectioned tooth such that the dentin layer is exposed without completely removing the enamel on the tooth. This allowed imaging of the enamel surfaces after the mineralization experiment without the problem of surface reflection, and provides a more parallel surface from which to compare the whiteness results. The sectioned tooth was fixed onto a glass slide with epoxy. Initial color measurements of each of the four sides of the sectioned tooth was obtained using a Minolta Chroma Meter CR-200 (Konica Minolta, Tokyo, Japan), according to manufacturer instructions, using a white background and a black background. The sectioned tooth was incubated in a mineralization polypeptide solution for 10 minutes at 37° C. and then in a solution with calcium ions and phosphate ions for 2 hours at 37° C. Color measurements of each of the four sides of the sample were taken as described initially. The sectioned was rinsed with deionized water and the remineralization process (incubation in polypeptide solution, incubation in solution of ion sources, and rinsing with deionized water) was repeated for a total of 25 rounds. The mineralization polypeptide was SYENSHSQAINVDRT (shADP5; SEQ ID NO:16).

Assay [5] is described as follows: Kinetic profile of mineral formation. As to conditions: fast = immediate mineral formation; slow = about 5 minutes to about 1 hour. As for the experimental part:
Fast kinetics refers to fast mineral formation, such as immediate mineral formation, while slow mineral formation refers to mineral formation over a period of time, such as about 5 minutes to about 1 hour. In some embodiments, a first biomineralizing peptide having faster kinetics can be used in combination with a second biomineralizing peptide having slower kinetics.

For the substance “SYENSHSQAINVDRT [shADP5, shortened amelogenin derived polypeptide ADP5]”, the “Mean Pixel Intensity” value is listed as 69.47 ± 2.96 in assay [1] (After 3 rounds of remineralization, Bar B in FIG. 6); 70.11 ± 2.92 in assay [1] (After 4 rounds of remineralization, Bar C in FIG. 6); 70.79 ± 1.96 in assay [1] (After 5 rounds of remineralization, Bar D in FIG. 6); 74.47 ± 2.13 in assay [1] (After 7 rounds of remineralization, Bar E in FIG. 6); 96.21 ± 2.39 in assay [3] (Whitened (stained and remineralized), 0 = completely black, 100 = completely white, Bar C in FIG. 4). Moreover, the “whiteness of the stained tooth” value in assay [1] (repeated rounds of remineralization (3 to 7 rounds)) is given as “whiteness of the stained tooth improves with repeated rounds of remineralization”. For the same substance, the “colour of treated tooth quarter versus control” value is “lighter in color than the control” in assay [2] and “lighter in color than the left quarter (control)” in assay [3] (tea-stained human tooth, peptide 10 minutes 37° C., then CaCl2/KH2PO4 16 hours 37° C., control in Tris buffer). Also, the “whiteness versus original tooth and stained tooth” value in assay [3] (after staining and remineralization, from MPI in FIG. 4) is “improved whiteness over the original tooth and the stained tooth”. The “whiteness of the tooth enamel” value in assay [4] was “whiteness of the tooth enamel improved with each round of remineralization”.

Turning to “(PGYIN(L/F)SYE(K/N)SHSQAIN(T/V)DRTA)1-10 [ADP5]”, in assay [5], the “kinetic profile (mineral formation)” value is on record as “fast kinetic profile”.

As for “(HPP(S/T)HTLQPHHH(L/I)PVVPAQQPV (A/I)PQQPMMPVPG(H/Q)HSMTP(T/I)QH)1-10 [ADP7]”, the “kinetic profile (mineral formation)” value in assay [5] is listed as “slow kinetic profile”.

For the origin of these results see patent US20180200172A1, “REAGENTS AND METHODS FOR WHITENING TEETH” (UNIVERSITY OF WASHINGTON THROUGH ITS CENTER FOR …, priority 2015, published 2018).
